Reference: ChEMBL document CHEMBL1129767, “Synthesis and properties of 25 and 35 linked -oligoriboadenylates” (Bioorg Med Chem Lett, 1996)

How the values were obtained:
Format in all cases: ADME
[1] = Biological half life period of compound was measured against snake venom phosphodiesterase (SVPDE); settings: serpentes
[2] = Biological half life period of compound was measured against nuclease P1;NC: Not cleaved
[3] = Biological half life period of compound was measured against RNaseT2; NC: Not cleaved
[4] = Biological half life period of compound was measured against RNaseT2; N C: Not cleaved
[5] = Biological half life period of compound was measured against RNaseT2.; settings: RNase T2
[6] = Biological half life period of compound was measured against nuclease P1.

| Structure (SMILES) | half-life [1] [min] | T1/2 [2] | T1/2 [3] | T1/2 [4] | half-life [5] [min] | half-life [6] [min] |
| --- | --- | --- | --- | --- | --- | --- |
| Nc1ncnc2c1ncn2C1OC(COP(=O)(O)O[C@@H]2[C@H](O)[C@@H](CO)O[C@@H]2n2cnc3c(N)ncnc32)[C@@H](O)[C@H]1O (single isomer, unassigned) | 18 | Not cleaved | Not cleaved |  |  |  |
| Nc1ncnc2c1ncn2C1O[C@H](COP(=O)(O)O[C@@H]2[C@H](O)[C@@H](CO)O[C@H]2n2cnc3c(N)ncnc32)[C@@H](O)[C@H]1O (some centres not stated) | 3.6 | Not cleaved |  | Not cleaved |  |  |
| Nc1ncnc2c1ncn2C1O[C@H](COP(=O)(O)O[C@H]2[C@@H](O)[C@H](n3cnc4c(N)ncnc43)O[C@@H]2CO)[C@@H](O)[C@H]1O (some centres not stated) | 3.6 |  |  |  | 12.6 | 7.8 |
| Nc1ncnc2c1ncn2C1OC(COP(=O)(O)O[C@@H]2C(CO)O[C@H](n3cnc4c(N)ncnc43)[C@@H]2O)[C@@H](O)[C@H]1O (single isomer, unassigned) | 31.8 |  |  | Not cleaved |  | 120 |
